Results published in article PMC2600811 (Neuropharmacology, 2008).

Experiments:
rat mGluR1a [1] = molecular target: T1, rat mGluR1a (Rattus norvegicus, UniProt P23385); assay: Calcium mobilization; format: cell-based; conditions: fixed 1 µM compound, 10 min pre-incubation
mGluR1a = mGluR1a (Rattus norvegicus, UniProt P23385); assay: ERK1/2 phosphorylation assay; conditions: for P-ERK1/2 response as % of the response to a maximal concentration of glutamate: 1 µM PAM, no exogenously added agonist
rat mGluR1a [2] = molecular target: T1, rat mGluR1a; conditions: 500 nM compound, absence of glutamate
rat mGlu1a receptor [3] = molecular target: T2, rat mGlu1a receptor (Rattus norvegicus, UniProt P23385); conditions: saturation binding, BHK-mGluR1a membranes
rat mGlu1a receptor [4] = molecular target: T2, rat mGlu1a receptor; assay: biochemical

T1 sequence (P23385 19-1199): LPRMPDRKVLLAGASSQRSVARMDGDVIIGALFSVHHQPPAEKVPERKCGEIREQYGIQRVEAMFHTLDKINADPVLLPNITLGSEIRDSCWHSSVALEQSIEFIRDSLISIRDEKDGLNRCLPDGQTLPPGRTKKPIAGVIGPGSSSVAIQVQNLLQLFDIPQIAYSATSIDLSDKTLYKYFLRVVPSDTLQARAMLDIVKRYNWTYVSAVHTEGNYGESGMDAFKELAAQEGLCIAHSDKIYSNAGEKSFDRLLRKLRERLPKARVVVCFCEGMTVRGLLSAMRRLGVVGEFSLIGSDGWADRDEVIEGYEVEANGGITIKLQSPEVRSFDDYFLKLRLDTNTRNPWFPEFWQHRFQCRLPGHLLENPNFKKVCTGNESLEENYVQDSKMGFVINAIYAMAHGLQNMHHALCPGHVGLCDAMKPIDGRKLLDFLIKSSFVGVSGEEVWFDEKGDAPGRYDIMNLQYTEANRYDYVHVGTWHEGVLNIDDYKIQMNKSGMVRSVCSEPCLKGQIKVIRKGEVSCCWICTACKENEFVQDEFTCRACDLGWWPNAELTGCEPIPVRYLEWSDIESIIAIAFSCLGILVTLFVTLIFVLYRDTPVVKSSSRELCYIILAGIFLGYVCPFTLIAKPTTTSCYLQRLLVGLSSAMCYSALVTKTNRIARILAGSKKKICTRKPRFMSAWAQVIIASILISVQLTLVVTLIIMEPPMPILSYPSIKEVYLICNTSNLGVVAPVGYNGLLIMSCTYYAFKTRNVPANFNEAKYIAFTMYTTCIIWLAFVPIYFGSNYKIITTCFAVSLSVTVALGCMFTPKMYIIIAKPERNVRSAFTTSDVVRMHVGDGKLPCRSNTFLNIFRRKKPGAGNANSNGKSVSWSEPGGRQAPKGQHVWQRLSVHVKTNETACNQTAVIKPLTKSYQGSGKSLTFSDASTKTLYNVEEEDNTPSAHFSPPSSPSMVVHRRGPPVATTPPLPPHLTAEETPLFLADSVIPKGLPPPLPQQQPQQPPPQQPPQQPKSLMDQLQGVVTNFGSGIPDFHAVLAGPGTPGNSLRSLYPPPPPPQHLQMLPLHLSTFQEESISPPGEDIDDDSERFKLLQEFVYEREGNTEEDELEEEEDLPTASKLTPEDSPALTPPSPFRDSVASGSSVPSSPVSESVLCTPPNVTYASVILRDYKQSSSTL
Sequence of mGluR1a (P23385 19-1199): as above
T2 sequence (P23385 19-1199): as above

SMILES	leftward shift of the glutamate concentration-response curve (calcium) (rat mGluR1a [1])	EC50 (mGluR1a) [nM]	P-ERK1/2 response as % of the response to a maximal concentration of glutamate (mGluR1a) [%]	increase of basal cAMP accumulation (rat mGluR1a [2])	Bmax (rat mGlu1a receptor [3])	Kd (rat mGlu1a receptor [4]) [nM]	effect on basal ERK1/2 phosphorylation (mGluR1a; antagonist alone (100 nM R214127 or 10 µM LY341495))
Cc1ccc(S(=O)(=O)N2CCC[C@H]2c2ccc(F)cc2)cc1 (racemic) [Ro 67-7476, (S)-2-(4-fluorophenyl)-1-(toluene-4-sulfonyl)pyrrolidine]	~4.5 fold	163 ± 44.8	120.4 ± 1.9	8%			
O=C(Cc1ccccc1)c1ccc2nc3c(cc2c1)CCCO3 [R214127, 1-(3,4-dihydro-2H-pyrano[2,3-b]quinolin-7-yl)-2-phenyl-1-ethanone]					3817 ± 226 fmol/mg of protein	2.8 ± 0.3	does not effect basal ERK1/2 phosphorylation
CCOC(=O)NC(=O)C(c1ccccc1)c1ccccc1 [Ro 01-6128, ethyl diphenylacetylcarbamate]	approximately 2 fold		119.5 ± 17.3	approximately 7%			
CCCCOC(=O)NC(=O)C1c2ccccc2Oc2ccccc21 [Ro 67-4853, butyl (9H-xanthene-9-carbonyl)carbamate]	~15 fold	9.2 ± 6.2	114.4 ± 29.0	30%			
